Molecular target: T1, AtHscA1 (Arabidopsis thaliana, UniProt Q8GUM2)
T1 construct: gene HSP70-9
T1 sequence (Q8GUM2 47-682): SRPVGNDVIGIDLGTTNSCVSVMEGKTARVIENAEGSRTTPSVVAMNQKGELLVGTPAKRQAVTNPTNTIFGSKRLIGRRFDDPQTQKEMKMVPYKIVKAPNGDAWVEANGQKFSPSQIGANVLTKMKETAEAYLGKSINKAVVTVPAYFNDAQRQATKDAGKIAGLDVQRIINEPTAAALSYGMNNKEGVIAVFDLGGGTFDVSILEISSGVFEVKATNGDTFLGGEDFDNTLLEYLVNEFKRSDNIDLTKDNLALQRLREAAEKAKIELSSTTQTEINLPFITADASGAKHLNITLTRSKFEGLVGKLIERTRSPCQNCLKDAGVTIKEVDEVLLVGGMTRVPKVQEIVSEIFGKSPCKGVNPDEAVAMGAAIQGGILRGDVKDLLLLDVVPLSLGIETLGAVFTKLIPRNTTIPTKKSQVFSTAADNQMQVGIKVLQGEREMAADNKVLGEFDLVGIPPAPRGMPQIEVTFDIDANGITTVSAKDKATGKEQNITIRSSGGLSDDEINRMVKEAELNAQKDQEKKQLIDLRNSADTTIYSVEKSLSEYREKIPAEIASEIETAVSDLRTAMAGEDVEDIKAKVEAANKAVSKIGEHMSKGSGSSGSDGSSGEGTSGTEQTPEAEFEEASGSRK
Assay: ATPase assay, [gamma-32P]ATP hydrolysis, TLC and phosphorimager
Assay type: biochemical
Conditions: 50 mM Tris-HCl pH 7.4, 50 mM NaCl, 10 mM KCl, 0.1 mM EDTA, 1.5 mM DTT; 2 µM protein; no co-chaperone; labelled compound

Km: 49.5 µM
SMILES: Nc1ncnc2c1ncn2[C@@H]1O[C@H](COP(=O)(O)OP(=O)(O)OP(=O)(O)O)[C@@H](O)[C@H]1O [ATP]
